# Measured values published in patent US20190152967A1, “PEROXISOME PROLIFERATOR-ACTIVATED RECEPTOR GAMMA SELECTIVE AGONISTS FOR INHIBITION OF RETINAL PIGMENT EPITHELIUM DEGENERATION OR GEOGRAPHIC ATROPHY” (The Schepens Eye Research Institute, Inc., priority 2016, published 2019).
# What was measured:
# [1] = system: ARPE-19 cells; assay: ox-LDL-induced RPE (ARPE-19) cell death; format: cell-based; conditions: for protection of RPE from ox-LDL-induced cell death (FIG. 7): UVI3003 20 μM, troglitazone 1.3 μM alone or in combination with T0070907 and GW9662; for effect on the protection by PPARγ agonist troglitazone on RPE (FIG. 7): ARPE-19, ox-LDL, combined with troglitazone (1.3 μM)
# Experimental: In FIG. 1B, ARPE-19 cells were treated for 48 hr with LDL or ox-LDL at 25, 50, or 100 μg/ml. Conditioned media were harvested, and LDH levels were quantified to evaluate cell death.
# FIG. 5 is a bar graph showing testing different PPARγ agonists for RPE (ARPE-19) protection.
# FIG. 7 is a bar graph showing testing the effect of different PPAR(α, γ) and RXR antagonists in ox-LDL-induced RPE (ARPE-19) cell death.
# [2] = system: RXR; conditions: RXR antagonist; cited from earlier work
# [3] = biological target: T1, PPARγ (Homo sapiens, UniProt P37231); conditions: PPARγ agonist; cited from earlier work
# T1 sequence (P37231 1-505): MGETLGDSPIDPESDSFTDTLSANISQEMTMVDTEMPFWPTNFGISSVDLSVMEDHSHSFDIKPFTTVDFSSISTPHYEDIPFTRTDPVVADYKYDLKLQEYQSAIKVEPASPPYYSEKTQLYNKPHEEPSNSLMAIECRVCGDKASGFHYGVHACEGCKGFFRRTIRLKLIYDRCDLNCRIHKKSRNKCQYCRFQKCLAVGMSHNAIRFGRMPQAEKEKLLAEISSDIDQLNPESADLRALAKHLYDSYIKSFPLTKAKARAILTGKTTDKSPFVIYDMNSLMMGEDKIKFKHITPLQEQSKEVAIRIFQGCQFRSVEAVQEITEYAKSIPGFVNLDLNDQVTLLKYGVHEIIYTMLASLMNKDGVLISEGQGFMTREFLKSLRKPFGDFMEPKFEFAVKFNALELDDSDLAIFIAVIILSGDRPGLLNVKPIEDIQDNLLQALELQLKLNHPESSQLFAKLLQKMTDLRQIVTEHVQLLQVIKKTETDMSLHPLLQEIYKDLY
# [4] = biological target: T1, PPARγ; conditions: PPARγ antagonist; cited from earlier work
# [5] = system: caspase-1 activation in ARPE-19 cells; assay: ox-LDL-induced caspase-1 activation (FLICA probe) in ARPE-19 cells; format: cell-based; conditions: ARPE-19 serum-starved 24 hr, ox-LDL 100 μg/ml, troglitazone 1.3 μM, 48 hr
# Description: Cells were imaged by fluorescent microscope and the numbers of capase-1 positive cells for each treatment group were quantified by a masked investigator.
# [6] = system: PPARγ target genes (ANGPT, ACOX3) in ARPE19 cells; assay: PPARγ target genes expression in ARPE19 cells; conditions: 48-hour treatment, troglitazone vs. rosiglitazone
# [7] = system: human primary RPE cells; assay: ox-LDL-induced cell death of human primary RPE
# Experimental: For both, RPE cells were treated with 500 μg/mL of ox-LDL for 48 hr. Data=mean±SEM, **P<0.01 and ***P<0.001 compared to ox-LDL group (2-tailed unpaired t-test).
# Data=mean±SEM, ***P<0.001 compared to ox-LDL group (2-tailed unpaired t-test).
# [8] = system: primary human RPE cells; assay: chloroquine-induced death of primary human RPE cells
smiles,measurement,setting,value
CCCCCOc1cc2c(cc1-c1cc(/C=C/C(=O)O)ccc1O)C(C)(C)CCC2(C)C [UVI3003],protection of RPE from ox-LDL-induced cell death (FIG. 7),[1]; ARPE-19,significantly protected RPE from ox-LDL-induced death
same,protection of RPE from ox-LDL-induced death,"[1]; ARPE-19, UVI3003 at high dose (20 μM)",about 100%
same,IC50,[2],< 1000 nM
"CCCCC/C=C/C=C1/C(=O)C=C[C@@H]1C/C=C\CCCC(=O)O [PGJ2, 15-deoxy-Δ^12,14-Prostaglandin J2]",EC50,[3],2000 to 7000 nM
O=C(Nc1ccncc1)c1cc([N+](=O)[O-])ccc1Cl [T0070907],effect on the protection by PPARγ agonist troglitazone on RPE (FIG. 7),[1],did not affect the protection effect
same,protection of RPE from ox-LDL-induced cell death (FIG. 7),[1]; ARPE-19,did not have any detectable protection effect
CCC(=O)NC[C@H](Cc1ccc(OCCc2nc(-c3ccccc3)oc2C)cc1)N/C(C)=C\C(=O)c1ccc(C(F)(F)F)cc1 [GW6471],protection of RPE from ox-LDL-induced cell death (FIG. 7),[1]; ARPE-19,no detectable effect in RPE protection
O=C(Nc1ccccc1)c1cc([N+](=O)[O-])ccc1Cl [GW9662],effect on the protection by PPARγ agonist troglitazone on RPE (FIG. 7),[1],did not affect the protection effect
same,protection of RPE from ox-LDL-induced cell death (FIG. 7),[1]; ARPE-19,did not have any detectable protection effect
same,IC50,[4],< 100 nM
"Cc1c(C)c2c(c(C)c1O)CCC(C)(COc1ccc(CC3SC(=O)NC3=O)cc1)O2 (racemic) [troglitazone, (RS)-5-(4-[(6-hydroxy-2,5,7,8-tetramethylchroman-2-yl)methoxy]benzyl)thiazolidine-2,4-dione]",suppression of ox-LDL-induced caspase-1 activation (FIG. 3),[5],significantly suppressed ox-LDL-induced caspase-1 activation
same,protection of RPE from ox-LDL-induced cell death (FIG. 7),[1]; ARPE-19,significantly protected the RPE against ox-LDL-induced cell death
same,protection of RPE from ox-LDL-induced cell death (FIG. 5),"[1]; ARPE-19, troglitazone at 0.65 and 3.25 μM",significantly protected RPE cell from ox-LDL-induced cell death
same,expression levels of PPARγ target genes ANGPT (angiopoietin-like-4) and ACOX3 (FIGS. 6A-B),[6],differentially affected
same,decrease of ox-LDL-induced cell death (FIG. 2B),"[7]; human primary RPE, 500 μg/mL ox-LDL for 48 hr, doses of 0.65 μM and 0.98 μM",significantly decreased cell death in a dose-dependent manner
same,suppression of ox-LDL-induced death of primary human RPE cells (FIG. 4),[7]; primary human RPE cells,significantly suppressed ox-LDL-induced death
same,suppression of RPE death induced by chloroquine (FIG. 4),[8],ineffective
O=C1NC(=O)C(Cc2ccc3cc(OCc4ccccc4F)ccc3c2)S1 (stereo not drawn) [MCC-555],EC50 relative to rosiglitazone,[3],lower than that of rosiglitazone
